Source: doi:10.1101/2023.10.20.563248v1 (biorxiv, 2023)

How the values were obtained:
[1] = biological target: MST4 (full-length, NanoLuc fusion) (Homo sapiens, UniProt Q9P289); assay: NanoBRET tracer displacement, HEK293T; assay type: cell-based; settings: intact cells; […] °C, […] h; competitive with tracer
[2] = biological target: MST3 (full-length, NanoLuc fusion) (Homo sapiens, UniProt Q9Y6E0); assay: cell-based
[3] = biological target: MST1 (full-length, NanoLuc fusion) (Homo sapiens, UniProt Q13043); assay: NanoBRET tracer displacement, HEK293T; assay type: cell-based; settings: intact cells; […] °C, […] h; competitive with tracer
Sequence of MST1 (full-length, NanoLuc fusion) (Q13043 whole entry, the tested form may be a part): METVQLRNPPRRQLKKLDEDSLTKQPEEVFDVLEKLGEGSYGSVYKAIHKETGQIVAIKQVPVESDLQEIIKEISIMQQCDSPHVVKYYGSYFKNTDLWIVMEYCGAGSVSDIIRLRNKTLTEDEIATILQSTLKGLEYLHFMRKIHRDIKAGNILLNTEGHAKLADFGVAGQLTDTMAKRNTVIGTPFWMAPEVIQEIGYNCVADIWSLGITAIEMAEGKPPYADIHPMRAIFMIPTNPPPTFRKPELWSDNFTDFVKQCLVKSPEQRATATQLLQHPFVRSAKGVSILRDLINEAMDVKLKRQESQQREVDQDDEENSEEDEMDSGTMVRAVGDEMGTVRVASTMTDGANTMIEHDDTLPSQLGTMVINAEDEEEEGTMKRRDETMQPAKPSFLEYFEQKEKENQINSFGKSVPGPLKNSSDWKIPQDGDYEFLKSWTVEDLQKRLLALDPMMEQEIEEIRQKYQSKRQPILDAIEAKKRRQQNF

[4] = biological target: MST2 (full-length, NanoLuc fusion) (Homo sapiens, UniProt Q13188); assay: NanoBRET tracer displacement, HEK293T; assay type: cell-based; settings: intact cells; […] °C, […] h; competitive with tracer
Sequence of MST2 (full-length, NanoLuc fusion) (Q13188 whole entry, the tested form may be a part): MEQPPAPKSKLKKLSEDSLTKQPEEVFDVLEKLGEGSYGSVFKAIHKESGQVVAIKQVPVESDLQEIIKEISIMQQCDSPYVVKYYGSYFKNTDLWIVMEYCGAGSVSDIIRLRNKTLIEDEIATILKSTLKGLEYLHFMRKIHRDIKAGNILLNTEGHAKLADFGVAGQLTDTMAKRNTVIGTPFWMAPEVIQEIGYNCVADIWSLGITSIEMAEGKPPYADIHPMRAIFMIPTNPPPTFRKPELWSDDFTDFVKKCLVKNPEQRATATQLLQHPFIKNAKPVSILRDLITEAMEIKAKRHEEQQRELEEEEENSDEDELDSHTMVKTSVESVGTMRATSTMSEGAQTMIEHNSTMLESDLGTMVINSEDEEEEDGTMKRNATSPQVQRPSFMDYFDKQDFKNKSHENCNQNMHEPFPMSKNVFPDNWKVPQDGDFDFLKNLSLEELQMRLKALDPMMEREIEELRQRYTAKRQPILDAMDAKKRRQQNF

Sequence of MST4 (full-length, NanoLuc fusion) (Q9P289 whole entry, the tested form may be a part): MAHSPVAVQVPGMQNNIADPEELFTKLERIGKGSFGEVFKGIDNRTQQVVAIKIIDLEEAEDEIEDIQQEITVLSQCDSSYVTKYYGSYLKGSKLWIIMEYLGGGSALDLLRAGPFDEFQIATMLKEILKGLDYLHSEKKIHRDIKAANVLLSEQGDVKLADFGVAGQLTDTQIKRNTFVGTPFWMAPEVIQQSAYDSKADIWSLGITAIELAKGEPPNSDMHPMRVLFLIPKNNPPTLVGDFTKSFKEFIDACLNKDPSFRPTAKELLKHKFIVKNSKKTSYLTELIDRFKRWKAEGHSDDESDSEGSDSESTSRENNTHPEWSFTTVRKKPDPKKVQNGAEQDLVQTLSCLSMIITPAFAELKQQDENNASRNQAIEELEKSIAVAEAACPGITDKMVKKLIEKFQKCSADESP
Sequence of MST3 (full-length, NanoLuc fusion) (Q9Y6E0 whole entry, the tested form may be a part): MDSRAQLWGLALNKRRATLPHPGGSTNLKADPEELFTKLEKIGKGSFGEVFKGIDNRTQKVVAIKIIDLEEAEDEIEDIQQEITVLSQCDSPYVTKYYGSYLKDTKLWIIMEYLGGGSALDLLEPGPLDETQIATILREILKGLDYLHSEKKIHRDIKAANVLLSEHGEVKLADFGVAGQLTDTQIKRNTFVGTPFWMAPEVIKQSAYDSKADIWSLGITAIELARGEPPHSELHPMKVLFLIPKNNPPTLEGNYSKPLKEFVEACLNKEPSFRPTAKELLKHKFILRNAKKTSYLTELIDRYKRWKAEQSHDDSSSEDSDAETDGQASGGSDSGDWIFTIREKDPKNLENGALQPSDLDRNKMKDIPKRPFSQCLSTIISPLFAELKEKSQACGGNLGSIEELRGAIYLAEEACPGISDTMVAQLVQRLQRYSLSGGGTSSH

| SMILES | EC50 [1] [nM] | EC50 [2] [nM] | EC50 [3] [nM] | EC50 [4] [nM] |
| --- | --- | --- | --- | --- |
| O=C1NCCCCCCNc2nc(c3ccccc3n2)Nc2cc1[nH]n2 [21e, (Z)-3^1H-2,5,12-triaza-1(4,2)-quinazolina-3(3,5)-pyrazolacyclododecaphan-4-one] | 2400 | 1800 | – | – |
| N#CCc1ccc(Nc2nccc(Nc3cc(C4CC4)[nH]n3)n2)cc1 [compound 1, 1] | – | – | 200 | 110 |
